Experiment: Solubility of TA in a solvent containing 50% benzoic acid and 50% water at various temperatures
Assay type: physicochemical
Details: solvent 50% benzoic acid and 50% water
Description: The solubility of TA in a solvent containing 50% benzoic acid and 50% water was determined at various temperatures and is shown below in Table 1.

## O=C(O)c1ccc(C(=O)O)cc1 [TA, terephthalic acid]
At 455 °F
  solubility of TA given in Example 1: 10.9%
Temp 397 °F
  TA Solubility: 5.04 g TA/100 g Solution
Temp 436 °F
  TA Solubility: 8.58 g TA/100 g Solution
Temp 446 °F
  TA Solubility: 9.59 g TA/100 g Solution
Temp 451 °F
  TA Solubility: 9.77 g TA/100 g Solution
Temp 455 °F
  TA Solubility: 10.91 g TA/100 g Solution
Temp 477 °F
  TA Solubility: 13.49 g TA/100 g Solution
Temp 505 °F
  TA Solubility: 18.71 g TA/100 g Solution

— patent publication US7465824B2, “Process for the production of high purity aromatic carboxylic acids using a benzoic acid and water solvent for oxidation and purification” (BP Corporation North America Inc., priority 2007, dated 2008)
